Legend:
XIAP BIR-3 = target: T1, XIAP BIR-3 (Homo sapiens, UniProt P98170); assay: Fluorescence polarization binding to XIAP BIR-3 with labeled peptide AbuRPF-K(5-Fam)-NH2; conditions: XIAP BIR-3, 40 nM BIR3, 5 nM labeled peptide, 15 min RT, pH 7.5; read-out: XIAP, nM (binding affinity KD, as range)
T1 construct: 40 nM of the respective IAP BIR3
In short: (§1)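 Competitive FP with 5 nM 5-Fam-labelled Smac-mimetic peptide and 40 nM IAP BIR3, 15 min at RT in 0.1 M potassium phosphate pH 7.5 with bovine γ-globulin. Polarization (mP) read at 485/520 nm; KD reported as ranges A–D (A <0.1 μM to D >10 μM).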

cIAP-1 BIR-3 = target: T2, cIAP-1 BIR-3 (Homo sapiens, UniProt Q13490); assay: Fluorescence polarization binding to cIAP-1 BIR-3 with labeled peptide AbuRPF-K(5-Fam)-NH2; conditions: cIAP-1 BIR-3, 40 nM BIR3, 5 nM labeled peptide, 15 min RT, pH 7.5; read-out: cIAP1, nM (binding affinity KD, as range)
T2 construct: 40 nM of the respective IAP BIR3
T2 sequence (Q13490 253-363 limits assumed): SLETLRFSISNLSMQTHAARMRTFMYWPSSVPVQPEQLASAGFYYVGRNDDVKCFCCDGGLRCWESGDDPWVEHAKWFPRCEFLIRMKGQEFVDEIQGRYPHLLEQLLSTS
In short: as §1

SK-OV-3 cells = assay: MTT cell growth inhibition assay in ovarian cancer cell line SK-OV-3; format: cell-based; conditions: Homo sapiens, 72 hrs incubation, read-out: SKOV3, nM (CC50, concentration giving 50% cell survival, as range)
In short: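 SK-OV-3 cells (5,000 per well, McCoy's medium with 10% FBS) exposed to compounds at 0.003-10 μM for 72 h at 37°C, followed by MTT for 3 h, DMSO solubilisation and OD at 535 nm. CC50 is the concentration giving 50% survival relative to control wells, reported in ranges (A <0.1 μM to D >10 μM).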

T1 sequence (P98170 241-356 limits assumed): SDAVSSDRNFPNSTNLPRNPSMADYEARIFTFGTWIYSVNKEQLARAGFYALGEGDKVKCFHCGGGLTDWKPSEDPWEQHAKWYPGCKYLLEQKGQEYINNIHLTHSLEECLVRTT

Structure (SMILES): CN[C@@H](C)C(=O)N[C@H](C(=O)N1CC[C@@H]2[C@H]1[C@@H](C(=O)Nc1cnc3ccccc3c1)CN2S(C)(=O)=O)C(C)(C)C [Example 51, 4-[3,3-Dimethyl-2-(2-methylamino-propionylamino)-butyryl]-1-methanesulfonyl-octahydro-pyrrolo[3,2-b]pyrrole-3-carboxylic acid quinolin-3-ylamide]
- Kd (XIAP BIR-3): 100 to 1000 nM
- Kd (cIAP-1 BIR-3): < 100 nM
- CC50 (SK-OV-3 cells): < 100 nM

Structure (SMILES): CN[C@@H](C)C(=O)N[C@H](C(=O)N1CC[C@@H]2[C@H]1[C@@H](C(=O)Nc1ccc3ccccc3n1)CN2S(C)(=O)=O)C(C)(C)C [Example 52, 4-[3,3-Dimethyl-2-(2-methylamino-propionylamino)-butyryl]-1-methanesulfonyl-octahydro-pyrrolo[3,2-b]pyrrole-3-carboxylic acid quinolin-2-ylamide]
- Kd (XIAP BIR-3): 100 to 1000 nM
- Kd (cIAP-1 BIR-3): < 100 nM
- CC50 (SK-OV-3 cells): < 100 nM

Structure (SMILES): CN[C@@H](C)C(=O)N[C@H](C(=O)N1CC[C@@H]2[C@H]1[C@@H](C(=O)Nc1cccc3ccccc13)CN2C(=O)CNC(=O)C(=O)NCC(=O)N1C[C@H](C(=O)Nc2cccc3ccccc23)[C@@H]2[C@H]1CCN2C(=O)[C@@H](NC(=O)[C@H](C)NC)C(C)(C)C)C(C)(C)C [Example 53, N,N′-Bis-{2-[4-[3,3-dimethyl-2-(2-methylamino-propionylamino)-butyryl]-3-(naphthalen-1-ylcarbamoyl)-hexahydro-pyrrolo[3,2-b]pyrrol-1-yl]-2-oxo-ethyl}-oxalamide]
- Kd (XIAP BIR-3): < 100 nM
- Kd (cIAP-1 BIR-3): < 100 nM
- CC50 (SK-OV-3 cells): < 100 nM

Structure (SMILES): CN[C@@H](C)C(=O)N[C@H](C(=O)N1CC[C@@H]2[C@H]1[C@@H](C(=O)Nc1ccc(F)cc1)CN2C(=O)CNC(=O)C(=O)NCC(=O)N1C[C@H](C(=O)Nc2ccc(F)cc2)[C@@H]2[C@H]1CCN2C(=O)[C@@H](NC(=O)[C@H](C)NC)C(C)(C)C)C(C)(C)C [Example 54, N,N′-Bis-{2-[4-[3,3-dimethyl-2-(2-methylamino-propionylamino)-butyryl]-3-(4-fluoro-phenylcarbamoyl)-hexahydro-pyrrolo[3,2-b]pyrrol-1-yl]-2-oxo-ethyl}-oxalamide]
- Kd (XIAP BIR-3): < 100 nM
- Kd (cIAP-1 BIR-3): < 100 nM
- CC50 (SK-OV-3 cells): < 100 nM

From US8481495B2 (TetraLogic Pharmaceuticals Corporation, priority 2009, dated 2013)
